Earlier results as cited in patent US20200281877A1, “METHOD FOR PREVENTION AND TREATMENT OF ACNE, ECZEMA, PSORIASIS, AND RELATED DERMATOLOGICAL CONDITIONS WITH COMPOSITION COMPRISING A SPHINGOLIPID AND SULPHUR COMPOUNDS” (priority 2018, published 2020).

Test system: SA_SCD (sphingolipid ceramide N-deacylase)

hydrolytic activity of SA_SCD (optimal pH 6.0): strongly inhibited
synthetic activity of SA_SCD (optimal pH 7.5): strongly inhibited
SMILES: [Zn+2] [bivalent zinc (Zn^2+)]
